From article PMC9196953 (Drug development research, 1999)
Read-outs that look alike come from different tables or passages of the source.

Columns and labels:
human A2B receptors = molecular target: T1, human A2B receptors (Homo sapiens, UniProt P29275); test: Binding at human A2B receptors expressed in HEK-293 cells vs [3H]ZM241385; details: for rA1/hA2B: ratio of Ki rat A1 to Ki human A2B
T1 construct: expressed in transfected cells; host or cells: HEK-293
T1 sequence (P29275 1-332): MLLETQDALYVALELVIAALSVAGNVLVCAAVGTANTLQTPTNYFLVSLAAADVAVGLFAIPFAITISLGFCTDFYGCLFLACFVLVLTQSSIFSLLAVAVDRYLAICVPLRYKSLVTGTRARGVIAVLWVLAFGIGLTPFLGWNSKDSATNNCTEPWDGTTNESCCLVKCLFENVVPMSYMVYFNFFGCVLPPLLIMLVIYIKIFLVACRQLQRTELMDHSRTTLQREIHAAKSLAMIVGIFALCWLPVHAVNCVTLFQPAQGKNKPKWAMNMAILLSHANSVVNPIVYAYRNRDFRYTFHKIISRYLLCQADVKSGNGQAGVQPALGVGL
Experimental: The plasmid was amplified in competent JM109 cells and plasmid DNA isolated using Wizard Megaprep columns (Promega Corp., Madison, WI).
Colonies were selected by growth of cells in 0.6 mg/mL G418. Transfected cells were maintained in DMEM supplemented with Hams F12 nutrient mixture (1/1), 10% newborn calf serum, 2 mM glutamine, and containing 50 IU/mL penicillin, 50 μg/mL streptomycin, and 0.2 mg/mL Geneticin (G418, Boehringer Mannheim, Indianapolis, IN).
Confluent monolayers of HEK-A2B cells were washed with PBS followed by ice-cold Buffer A (10 mM HEPES, 10 mM EDTA, pH 7.4) with protease inhibitors ([…] benzamidine, […], and […] of each aprotinin, pepstatin, and leupeptin). The cells were homogenized in a Polytron (Brinkmann) for 20 sec, centrifuged at 30,000g, and the pellets washed twice with buffer HE (10 mM HEPES, 1 mM EDTA, pH 7.4 with protease inhibitors). The final pellet was resuspended in buffer HE, supplemented with 10% sucrose and frozen in aliquots at −80°C. For binding assays, membranes were thawed and diluted 5–10-fold with HE to a final protein concentration of approximately 1 mg/mL. […] After incubating for 20 min at room temperature, 50 mL of 10 mg/mL Na-metabisulfite in water was added the quench the reaction. The reaction products were applied to a C18 HPLC column using 4 mM phosphate, pH 6.0/methanol. […] The incubation time was 3 h at 21°C. […] Membranes were filtered on Whatman GF/C filters using a Brandell cell harvester (Gaithersburg, MD) and washed three times over 15–20 sec with ice-cold buffer (10 mM Tris, 1 mM MgCl2, pH 7.4). […] Data from replicate experiments are tabulated as means ± SEM.
At A2B receptors, two radioligand binding assays (Table 1) were used. […] In order to evaluate selectivity, selected derivatives were subjected to standard binding assays at A1, A2A, and A3 receptors.

rat A2A receptors = molecular target: T2, rat A2A receptors (Rattus norvegicus, UniProt P30543); test: Displacement of [3H]CGS 21680 binding to A2A receptors in rat striatal membranes; details: read-out: Ki rA2A
T2 construct: to A2A receptors from rat striatal membranes; from tissue; host or cells: rat striatal membranes
Experimental: (§1) All nonradioactive compounds were initially dissolved in DMSO and diluted with buffer to the final concentration, where the amount of DMSO never exceeded 2%. Incubations were terminated by rapid filtration over Whatman GF/B filters using a Brandell cell harvester. The tubes were rinsed three times with 3 mL buffer each.
(§2) At least six different concentrations of competitor, spanning 3 orders of magnitude adjusted appropriately for the IC50 value of each compound, were used. IC50 values, calculated with the nonlinear regression method implemented in Graph-Pad Prism (San Diego, CA) were converted to apparent Ki values as described by [Linden [1982]]. Hill coefficients of the tested compounds were in the range of 0.8–1.1.
(§3) At A2B receptors, two radioligand binding assays (Table 1) were used. Ki values of xanthine derivatives were determined in displacement of binding of the non-selective radioligands […], 8 (4-(2-[7-amino-2-{furyl}{1,2,4}triazolo{2,3-a}{1,3,5}tr nzyl)-8-phenyloxyacetate-1-propyl-xanthine), at human A2B receptors expressed in HEK-293 cell membranes [[Linden and Jacobson, 1998]]. In order to evaluate selectivity, selected derivatives were subjected to standard binding assays at A1, A2A, and A3 receptors. The initial screening utilized rat brain A1/A2A receptors (with radioligands [^3H]R-PIA and [^3H]CGS-21680), and selected compounds were examined at the recombinant human subtypes (Table 1), using [^3H]CPX ([^3H]8-cyclopentyl-1,3-dipropylxanthine) and ^125I-ZM 241385, ^125I-4-(2-[7-amino-2-[2-furyl][1,2,4]triazolo[2,3-a][1,3,5]triazin-5-yl-amino]ethyl)phenol) [[Palmer et al., 1996]].

human A3 receptors = molecular target: T3, human A3 receptors (Homo sapiens, UniProt P0DMS8); test: Displacement of [125I]AB-MECA binding at human A3 receptors expressed in HEK cells; details: read-out: Ki hA3
T3 construct: expressed in transfected cells; host or cells: HEK-293
T3 sequence (P0DMS8 1-318): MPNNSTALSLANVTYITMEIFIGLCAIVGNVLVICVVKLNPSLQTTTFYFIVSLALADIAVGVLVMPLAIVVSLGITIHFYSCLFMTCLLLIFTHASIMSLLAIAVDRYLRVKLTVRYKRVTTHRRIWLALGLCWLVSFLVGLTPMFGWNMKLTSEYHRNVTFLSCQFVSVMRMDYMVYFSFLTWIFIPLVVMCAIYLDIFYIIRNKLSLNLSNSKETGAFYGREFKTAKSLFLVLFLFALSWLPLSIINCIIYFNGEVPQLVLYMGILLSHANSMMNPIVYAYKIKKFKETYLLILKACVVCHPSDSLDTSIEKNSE
Experimental: as §3

rat A1 receptors = molecular target: T4, rat A1 receptors (Rattus norvegicus, UniProt P25099); test: Displacement of [3H]R-PIA binding to A1 receptors in rat brain membranes; details: read-out: Ki rA1
T4 construct: to A1 receptors from rat cerebral cortical membranes; from tissue; host or cells: rat cerebral cortical membranes
T4 sequence (P25099 1-326): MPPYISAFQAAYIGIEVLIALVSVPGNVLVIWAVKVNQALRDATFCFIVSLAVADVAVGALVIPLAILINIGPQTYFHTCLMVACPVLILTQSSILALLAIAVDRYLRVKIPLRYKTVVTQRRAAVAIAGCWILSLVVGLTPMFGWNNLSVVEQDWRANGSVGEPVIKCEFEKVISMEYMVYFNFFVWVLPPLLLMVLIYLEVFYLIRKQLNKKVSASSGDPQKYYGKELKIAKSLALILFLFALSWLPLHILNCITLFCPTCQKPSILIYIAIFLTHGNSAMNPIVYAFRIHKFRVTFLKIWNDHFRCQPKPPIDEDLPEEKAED
Experimental: as §1, §2, §3

[1] = HEK-293 cells, vs [3H]ZM241385, read-out: Ki hA2B
[2] = rounded values given in text, read-out: Ki at human A2B receptors

T2 sequence (P30543 whole entry): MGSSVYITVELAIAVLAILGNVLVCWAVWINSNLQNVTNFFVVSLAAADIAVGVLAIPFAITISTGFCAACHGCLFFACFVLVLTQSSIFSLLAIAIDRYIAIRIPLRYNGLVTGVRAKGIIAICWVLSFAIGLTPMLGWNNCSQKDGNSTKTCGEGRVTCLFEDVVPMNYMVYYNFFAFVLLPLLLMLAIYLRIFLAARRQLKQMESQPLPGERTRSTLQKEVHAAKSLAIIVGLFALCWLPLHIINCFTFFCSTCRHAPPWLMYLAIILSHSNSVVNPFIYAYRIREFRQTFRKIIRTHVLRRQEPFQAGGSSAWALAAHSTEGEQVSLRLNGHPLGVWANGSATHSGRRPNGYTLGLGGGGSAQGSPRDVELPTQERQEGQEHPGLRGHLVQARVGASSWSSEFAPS

Row | SMILES | Ki (human A2B receptors; [1]) [nM] | rA1/hA2B (human A2B receptors) | Ki (rat A2A receptors) [nM] | Ki (human A3 receptors) [nM] | Ki (rat A1 receptors) [nM] | Ki (human A2B receptors; [2]) [nM]
1 | CCCn1c(=O)c2[nH]c(-c3ccc(OCC(=O)NN4C(=O)CCCC4=O)cc3)nc2n(CCC)c1=O [Compound 22, 8-[4-[(Carboxymethyl)oxy]phenyl]-1,3-di-(n-propyl)xanthine N,N-Glutarylhydrazide] | 22 ± 5.5 | 0.6 | 135 ± 39 | 200 ± 45 | 14 ± 2.3 | 
2 | CCCn1c(=O)c2[nH]c(-c3ccc(OCC(=O)NN4C(=O)C[C@H](NC(=O)C(F)(F)F)C4=O)cc3)nc2n(CCC)c1=O [Compound 11, 8-[4-[(Carboxymethyl)oxy]phenyl]-1,3-di-(n-propyl)xanthine N,N-[((2S)-Trifluoroacetamido)-succinyl]hydrazide] | 30.2 ± 0.5 | 2.5 | 139 ± 32 | 1560 | 74.3 ± 6.6 | 30
3 | CCCn1c(=O)c2[nH]c(-c3ccc(OCC(=O)NN4C(=O)C=C(c5ccccc5)C4=O)cc3)nc2n(CCC)c1=O [Compound 16, 8-[4-[(Carboxymethyl)oxy]phenyl]-1,3-di-(n-propyl)xanthine N,N-[(2-Phenyl)maleyl]hydrazide] | 66.7 ± 37 | 3.4 | 1540 | 748 ± 234 | 225 ± 76 | 67
4 | CCCn1c(=O)c2[nH]c(-c3ccc(OCC(=O)NN4C(=O)CCC(c5ccccc5)C4=O)cc3)nc2n(CCC)c1=O (stereo not shown) [Compound 12, 8-[4-[(Carboxymethyl)oxy]phenyl]-1,3-di-(n-propyl)xanthine N,N-[(2-Phenyl)glutaryl]hydrazide] | 3.86 ± 0.7 | 1.0 | 21.4 ± 6.1 | 151 ± 99 | 3.87 ± 1.2 | 
5 | CCCn1c(=O)c2[nH]c(-c3ccc(OCC(=O)NNC(=O)[C@H](CCSC)NC(=O)OC(C)(C)C)cc3)nc2n(CCC)c1=O [Compound 26, 8-[4-[(Carboxymethyl)oxy]phenyl]-1,3-di-(n-propyl)xanthine N-(N-tert-Butoxycarbonyl-L-methionyl)-hydrazide] | 39.7 ± 13.6 | 2.8 | 524 ± 285 | 690 ± 570 | 113 ± 27 | 40
6 | CCCn1c(=O)c2[nH]c(-c3ccc(OCC(=O)NN4C(=O)C=C(C)C4=O)cc3)nc2n(CCC)c1=O [Compound 13, 8-[4-[(Carboxymethyl)oxy]phenyl]-1,3-di-(n-propyl)xanthine N,N-Citraconylhydrazide] | 144 ± 11 | 1.4 | 1230 | 551 ± 106 | 203 ± 41 | 
7 | CCCn1c(=O)c2[nH]c(-c3ccc(OCC(=O)NN4C(=O)C(c5ccccc5)=C(c5ccccc5)C4=O)cc3)nc2n(CCC)c1=O [Compound 17, 8-[4-[(Carboxymethyl)oxy]phenyl]-1,3-di-(n-propyl)xanthine N,N-[(1,2-Diphenyl)maleyl]hydrazide] | 27.9 ± 8.5 | 3.4 | 2100 | 3450 | 95.8 ± 25.1 | 28
8 | CCCn1c(=O)c2[nH]c(-c3ccc(OCC(=O)NNC(=O)[C@H](CC(C)C)NC(=O)OC(C)(C)C)cc3)nc2n(CCC)c1=O [Compound 25, 8-[4-[(Carboxymethyl)oxy]phenyl]-1,3-di-(n-propyl)xanthine N-(N-tert-Butoxycarbonyl-L-leucinyl)-hydrazide] | 47.5 ± 2.5 | 4.1 | 2750 | 195 ± 84 | 197 ± 67 | 48
9 | CCCn1c(=O)c2[nH]c(-c3ccc(OCC(=O)NN4C(=O)CC(O)CC4=O)cc3)nc2n(CCC)c1=O [Compound 23, 8-[4-[(Carboxymethyl)oxy]phenyl]-1,3-di-(n-propyl)xanthine N,N-(3-Hydroxy)glutarylhydrazide] | 25.7 ± 5.5 | 1.6 | 164 ± 61 | 290 ± 88 | 41.2 ± 16.6 | 

Now from value to molecule:

Row | Ki (human A2B receptors; [1]) [nM] | rA1/hA2B (human A2B receptors) | Ki (rat A2A receptors) [nM] | Ki (human A3 receptors) [nM] | Ki (rat A1 receptors) [nM] | Ki (human A2B receptors; [2]) [nM] | SMILES
10 | 78.5 ± 20.5 | 1.0 | 708 ± 169 | 1180 | 81.7 ± 31.2 |  | CCCn1c(=O)c2[nH]c(-c3ccc(OCC(=O)NNC(=O)C4=C(C(=O)O)CCC4)cc3)nc2n(CCC)c1=O [Compound 19a, 8-[4-[(Carboxymethyl)oxy]phenyl]-1,3-di-(n-propyl)xanthine N-[2-((1-Carboxy)-1-cyclopentene)-carbonyl]hydrazide]
11 | 21.5 ± 1.5 | 1.9 | 1160 | 308 ± 88 | 41.3 ± 6.4 |  | CCCn1c(=O)c2[nH]c(-c3ccc(OCC(=O)NN4C(=O)C5=C(CCC5)C4=O)cc3)nc2n(CCC)c1=O [Compound 19b, 8-[4-[(Carboxymethyl)oxy]phenyl]-1,3-di-(n-propyl)xanthine N,N-(1-Cyclopentene-1,2-dicarbonyl)-hydrazide]
12 |  |  | 63.8 ± 21.3 | 498 ± 139 | 16 ± 0.5 |  | CCCn1c(=O)c2nc(-c3ccc(OCC(=O)NN)cc3)[nH]c2n(CCC)c1=O [Compound 4c]
13 | 35.8 ± 0.7 | 1.7 | 415 ± 157 | 245 ± 45 | 61.9 ± 11.3 |  | CCCn1c(=O)c2[nH]c(-c3ccc(OCC(=O)NN4C(=O)C5=C(CCCC5)C4=O)cc3)nc2n(CCC)c1=O [Compound 20b, 8-[4-[(Carboxymethyl)oxy]phenyl]-1,3-di-(n-propyl)xanthine N,N-(3,4,5,6-Tetrahydrophthaloyl)-hydrazide]
14 | 51 ± 7 | 2.6 | 813 ± 299 | 1060 | 134 ± 19 |  | CCCn1c(=O)c2[nH]c(-c3ccc(OCC(=O)NNC(=O)C4CC=CCC4C(=O)O)cc3)nc2n(CCC)c1=O (stereo not drawn) [Compound 18a, 8-[4-[(Carboxymethyl)oxy]phenyl]-1,3-di-(n-propyl)xanthine N-[2-((1-Carboxy)-cis-4-cyclohexene)-carbonyl]hydrazide]
